# Measured values from patent EP2829880A1, “Method for identifying modulators of BCRP/ABCG2-mediated ATP release and use of said modulators for treating diseases” (Energeia Biosciences, priority 2013, dated 2015).
# Where two headings read alike, the source gives them in different places.
# B1: BCRP (ABCG2) (Homo sapiens) (protein)
# chain: MSSSNVEVFIPVSQGNTNGFPATASNDLKAFTEGAVLSFHNICYRVKLKSGFLPCRKPVEKEILSNINGIMKPGLNAILGPTGGGKSSLLDVLAARKDPSGLSGDVLINGAPRPANFKCNSGYVVQDDVVMGTLTVRENLQFSAALRLATTMTNHEKNERINRVIQELGLDKVADSKVGTQFIRGVSGGERKRTSIGMELITDPSILFLDEPTTGLDSSTANAVLLLLKRMSKQGRTIIFSIHQPRYSIFKLFDSLTLLASGRLMFHGPAQEALGYFESAGYHCEAYNNPADFFLDIINGDSTAVALNREEDFKATEIIEPSKQDKPLIEKLAEIYVNSSFYKETKAELHQLSGGEKKKKITVFKEISYTTSFCHQLRWVSKRSFKNLLGNPQASIAQIIVTVVLGLVIGAIYFGLKNDSTGIQNRAGVLFFLTTNQCFSSVSAVELFVVEKKLFIHEYISGYYRVSSYFLGKLLSDLLPMRMLPSIIFTCIVYFMLGLKPKADAFFVMMFTLMMVAYSASSMALAIAAGQSVVSVATLLMTICFVFMMIFSGLLVNLTTIASWLSWLQYFSIPRYGFTALQHNEFLGQNFCPGLNATGNNPCNYATCTGEEYLVKQGIDLSPWGLWKNHVALACMIVIFLTIAYLKLLFLKKYS
# Key:
# BCRP (ABCG2) [1] = target: T1, BCRP (ABCG2) (Homo sapiens, UniProt Q9UNQ0); assay: biochemical
# T1 sequence (Q9UNQ0 1-655): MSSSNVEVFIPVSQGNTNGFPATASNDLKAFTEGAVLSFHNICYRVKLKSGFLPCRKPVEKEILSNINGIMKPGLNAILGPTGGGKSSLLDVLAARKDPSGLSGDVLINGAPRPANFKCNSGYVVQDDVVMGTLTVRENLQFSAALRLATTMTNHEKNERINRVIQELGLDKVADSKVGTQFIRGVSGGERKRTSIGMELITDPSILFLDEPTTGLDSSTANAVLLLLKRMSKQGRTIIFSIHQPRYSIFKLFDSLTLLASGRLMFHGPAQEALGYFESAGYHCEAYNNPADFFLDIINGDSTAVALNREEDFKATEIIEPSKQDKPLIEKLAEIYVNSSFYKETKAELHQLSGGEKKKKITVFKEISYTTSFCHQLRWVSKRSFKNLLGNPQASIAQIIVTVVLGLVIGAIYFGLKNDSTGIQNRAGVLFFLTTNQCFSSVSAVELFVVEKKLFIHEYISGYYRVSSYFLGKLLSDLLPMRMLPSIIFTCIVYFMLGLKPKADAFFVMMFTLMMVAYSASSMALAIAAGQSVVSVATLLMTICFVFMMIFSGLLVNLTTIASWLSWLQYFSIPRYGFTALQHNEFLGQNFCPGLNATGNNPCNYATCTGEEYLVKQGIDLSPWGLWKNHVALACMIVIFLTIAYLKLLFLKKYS
# Description: The uptake of ATP is plotted in pmol/mg protein/min. […] The uptake of a [3H] or [32P]-radiolabelled ATP by an ABC drug transporter selected from the group consisting of BCRP (ABCG2) or MRP1-6 (ABCC1-6) into membrane vesicles (stably overexpressing one type of ABC transporter) under conditions of low pH (compared with physiological pH) can be studied by radiochemical analysis. Subsequently, the effect of a test compound on the ABC drug transporter-mediated ATP release can be studied at different pH values (not shown in figure). • Figure 6: Schematic representation of the ABC drug transporter mediated-ATP-release assay. The transport of a [3H] or [32P]-radiolabelled ATP by an ABC drug transporter selected from the group consisting of BCRP (ABCG2) or MRP1-6 (ABCC1-6) into MDCKII cells (stably overexpressing one type of ABC drug transporter) under conditions of low extracellular pH (compared with physiological pH) and/or hypoxic conditions (0-1% O2, 5% CO2, 94-95% N2) (compared with normoxic conditions (20% O2, 5% CO2, 75% N2)) can be studied by radiochemical analysis or HPLC. Subsequently, the effect of a test compound on the ABC drug transporter-mediated ATP release can be studied at different pH values (not shown in figure). • Figure 7: Schematic representation of ABCG2 expression in normal tissues. Arrows indicate direction of substrate transport. In the brain and testis, ABCG2 is expressed mainly in the blood vessel endothelium, forming part of the blood-brain and blood-testis barrier, respectively. (from: Robey et al. Curr Pharm Biotechnol 2011) • Figure 8: Table 1: Cellular localization and function of ion exchange pumps • Figure 9: Table 2: Protein and/or gene expression of MRP/Mrp isoforms in various brain compartments in human and in mouse and in rat. Table adapted from Dallas et al. (45). • Figure 10: Chemical structure of Danshen compounds • Fig. 10 A: Chemical structures of compounds from Danshen (Salvia miltiorrhiza) • Fig. 10 B: Chemical structures of main lipophilic compounds from Danshen • Fig. 10 C: Chemical structure of main hydrophilic compounds from Danshen • Fig. 10 D: Chemical structure of Magnesium lithospermate B • Fig. 10 E: Chemical structure of salvianolic acid B • Fig. 10 F: Chemical structure of Indirubin
# Membrane vesicles from (ABC transporter-transfected) Sf9 cells were prepared in isotonic vesicle buffer consisting of 50 mM Tris and 250 mM sucrose adjusted to pH 7.4. Vesicular transport assays were performed in vesicular transport assay buffer (50 mM HEPES/KOH, 100 mM KCI) as described before (Breedveld et al., 2004, 2007). The vesicular transport assay buffer and the solutions of all other reagents used in transport assays were adjusted to the appropriate pH (pH 6 or pH 7.4) by adding aliquots of HCl (37% w/w) for low pH. The pH of the final solution was controlled (Breedveld et al., 2007). […]
# Curve fitting was performed by nonlinear regression analysis using the software package Graphpad Prism version 4 (GraphPad Software, San Diego, USA). Data from concentration-dependent transport assays were analyzed according to the classical Michaelis-Menten model (eq. 1) (Rowland and Tozer, 1995): v = (Vmax x [S])/(Km + [S]) [formula] where v is the rate of transport, Vmax is the maximum velocity, S is the substrate concentration, and Km is the substrate concentration at half-maximum velocity.
# BCRP (ABCG2) [2] = target: T1, BCRP (ABCG2); parameters: made in house; host or cells: Sf9 insect cells (membrane vesicles); settings: 1 µM MTX; cited from earlier work
# [3] = cited from earlier work
# [4] = substrate: Nc1ncnc2c1ncn2[C@@H]1O[C@H](COP(=O)(O)OP(=O)(O)OP(=O)(O)O)[C@@H](O)[C@H]1O; assay: cells, lysate or membranes named; settings: other: pH 6, saturable transport, 37°C, 5 min (Fig. 2A)
molecule,measurement,setting,value
COc1ccnc(C[S+]([O-])c2nc3ccc(OC(F)F)cc3[nH]2)c1OC (stereo not shown) [pantoprazole],IC50,BCRP (ABCG2) [1],> 1000 µM
"Nc1ncnc2c1ncn2[C@@H]1O[C@H](COP(=O)(O)OP(=O)(O)OP(=O)(O)O)[C@@H](O)[C@H]1O [[^3H]ATP, adenosine 5'-triphosphate]",transport by BCRP at pH 6 relative to physiological pH,"BCRP (ABCG2) [1]; 0.5 min, 100 µM, pH 6",3.8 fold
"Nc1ncnc2c1ncn2[C@@H]1O[C@H](COP(=O)(O)OP(=O)(O)OP(=O)(O)O)[C@@H](O)[C@H]1O [[^32P]-γ-labeled-ATP, adenosine 5'-triphosphate]",net uptake into BCRP membrane vesicles,"BCRP (ABCG2) [1]; 0.5 min, 100 µM, pH 6",80 pmol/mg protein
same,net uptake into BCRP membrane vesicles,"BCRP (ABCG2) [1]; 10 min, 100 µM, pH 6",194 pmol/mg protein
"CN(Cc1cnc2nc(N)nc(N)c2n1)c1ccc(C(=O)N[C@@H](CCC(=O)O)C(=O)O)cc1 [MTX, methotrexate]",inhibition at 100 µM,BCRP (ABCG2) [1]; pH 6,~46%
same,ATP-dependent transport by BCRP at pH 5.1 relative to physiological pH,BCRP (ABCG2) [2],7 fold
CCN(CC)CCNC(=O)c1c(C)[nH]c(/C=C2\C(=O)Nc3ccc(F)cc32)c1C [sunitinib],increase of brain accumulation,[3]; Abcb1a/b(-/-) mice,2.3 fold
same,increase of brain accumulation,[3]; Abcb1a/b/Abcg2(-/-) mice,23 fold
B1,Km,[4],2000 µM
same,Vmax,[4],1.5 nmoles/mg protein/min
